Assay [1] concerns the target T1, recombinant human adrenergic beta 1 receptors (Homo sapiens, UniProt P08588).
T1 construct: purchased Euroscreen
The experiment in a line: Adrenergic β1 selectivity binding assay ([125I]-Iodocyanopindolol). The settings on record: inhibition of [125I]-Iodocyanopindolol (0.036 nM) binding; for IC50: read-out: β1 bind p IC50 (converted). In outline: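 Recombinant human β1 membranes in HEPES buffer pH 7.4 with 120 mM NaCl were incubated 2 hours at room temperature with 0.036 nM [^125I]-Iodocyanopindolol. Nonspecific binding defined by 10 μM propranolol; bound radioactivity counted after filtration. pIC50 from four-parameter logistic fit.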

In assay [2] the target is T2, recombinant human Dopamine Subtype D2s receptors (Homo sapiens, UniProt P14416).
T2 construct: purchased Perkin Elmer
Kind of assay: Dopamine D2 selectivity binding assay ([3H]-spiperone). The note with it: inhibition of [3H]-spiperone (0.16 nM) binding; for IC50: read-out: D2 bind pIC50 (converted). The gist of the method:
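Recombinant human D2s membranes incubated 2 h at room temperature with 0.16 nM [3H]-spiperone in HEPES/EDTA/NaCl/gelatin buffer, pH 7.4; 10 μM haloperidol defined non-specific binding. Filter-bound radioactivity counted after cold washes. pIC50 from 4-parameter logistic fit of NSB-corrected specific binding.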

Structures can show the parent of a compound that is named as a salt.

T2 sequence (P14416 1-414 isoform P14416-2): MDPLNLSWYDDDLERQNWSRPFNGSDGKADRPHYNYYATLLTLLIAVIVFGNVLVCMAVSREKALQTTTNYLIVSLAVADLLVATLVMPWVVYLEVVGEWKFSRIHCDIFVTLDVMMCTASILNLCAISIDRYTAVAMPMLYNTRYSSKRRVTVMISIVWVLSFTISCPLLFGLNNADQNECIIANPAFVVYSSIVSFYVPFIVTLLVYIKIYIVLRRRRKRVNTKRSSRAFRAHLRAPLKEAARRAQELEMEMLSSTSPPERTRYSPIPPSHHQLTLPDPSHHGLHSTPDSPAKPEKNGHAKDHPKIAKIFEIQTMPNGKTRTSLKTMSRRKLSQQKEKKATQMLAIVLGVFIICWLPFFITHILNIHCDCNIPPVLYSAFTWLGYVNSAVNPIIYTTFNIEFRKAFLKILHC
T1 sequence (P08588 whole entry): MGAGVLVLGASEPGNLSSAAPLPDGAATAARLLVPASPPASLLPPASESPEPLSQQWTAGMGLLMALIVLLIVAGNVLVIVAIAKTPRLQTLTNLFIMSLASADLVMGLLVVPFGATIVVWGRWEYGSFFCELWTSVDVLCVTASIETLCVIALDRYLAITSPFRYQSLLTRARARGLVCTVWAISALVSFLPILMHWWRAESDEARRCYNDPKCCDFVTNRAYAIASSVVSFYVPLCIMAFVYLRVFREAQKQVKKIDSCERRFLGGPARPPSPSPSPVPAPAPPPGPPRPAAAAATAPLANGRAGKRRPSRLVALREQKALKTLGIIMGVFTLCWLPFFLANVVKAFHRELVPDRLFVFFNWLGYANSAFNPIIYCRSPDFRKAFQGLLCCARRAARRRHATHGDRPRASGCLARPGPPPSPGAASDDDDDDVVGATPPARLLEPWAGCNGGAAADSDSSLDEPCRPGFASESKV

With `O=C(CCNCCc1cc(F)cc(F)c1)N(CCNCCc1ccc(O)c2[nH]c(=O)sc12)C1CCCCC1` [Example 92, N-Cyclohexyl-N^3-[2-(3,5-difluorophenyl)ethyl]-N-(2-{[2-(4-hydroxy-2-oxo-2,3-dihydro-1,3-benzothiazol-7-yl)ethyl]amino}ethyl)-β-alaninamide dihydrobromide salt], the “β1 bind p IC50” value in assay [1] is listed as 5.4. For the same molecule, the “D2 bind pIC50” value in assay [2] is listed as 6.5.
Regarding `O=C(CCNCCc1cccc(F)c1F)N(CCNCCc1ccc(O)c2[nH]c(=O)sc12)C1CCCCC1` [Example 93, N-Cyclohexyl-N^3-[2-(2,3-difluorophenyl)ethyl]-N-(2-{[2-(4-hydroxy-2-oxo-2,3-dihydro-1,3-benzothiazol-7-yl)ethyl]amino}ethyl)-β-alaninamide dihydrobromide salt], the “β1 bind p IC50” value in assay [1] was 5.2. In addition, the “D2 bind pIC50” value in assay [2] amounted to 6.5.
In the case of `O=C(CCNCCc1ccc(Cl)c(Cl)c1)N(CCNCCc1ccc(O)c2[nH]c(=O)sc12)C1CCOCC1` [Example 94, N^3-[2-(3,4-Dichlorophenyl)ethyl]-N-(2-{[2-(4-hydroxy-2-oxo-2,3-dihydro-1,3-benzothiazol-7-yl)ethyl]amino}ethyl)-N-(tetrahydro-2H-pyran-4-yl)-β-alaninamide dihydrobromide salt], the “β1 bind p IC50” value in assay [1] was determined as 5.7. The “D2 bind pIC50” value in assay [2] worked out at 6.1.
Turning to `O=C(CCNCCc1cccc(F)c1)N(CCNCCc1ccc(O)c2[nH]c(=O)sc12)C1CCCCCC1` [Example 95, N-Cycloheptyl-N^3-[2-(3-fluorophenyl)ethyl]-N-(2-{[2-(4-hydroxy-2-oxo-2,3-dihydro-1,3-benzothiazol-7-yl)ethyl]amino}ethyl)-β-alaninamide dihydromide salt], the “β1 bind p IC50” value in assay [1] is recorded as 5.5. For the same molecule, the “D2 bind pIC50” value in assay [2] is reported as 6.7.
In the case of `O=C(CCNCCc1cccc(F)c1)N(CCNCCc1ccc(O)c2[nH]c(=O)sc12)C1CCCCC1` [Example 96, N-Cyclohexyl-N^3-[2-(3-fluorophenyl)ethyl]-N-(2-{[2-(4-hydroxy-2-oxo-2,3-dihydro-1,3-benzothiazol-7-yl)ethyl]amino}ethyl)-β-alaninamide dihydrobromide salt], the IC50 in assay [1] is 6310 nM; in assay [2], 398 nM.
For `O=C(CCNCCc1ccccc1)N(CCNCCc1ccc(O)c2[nH]c(=O)sc12)C1CCCCCC1` [Example 98, N-Cycloheptyl-N-(2-{[2-(4-hydroxy-2-oxo-2,3-dihydro-1,3-benzothiazol-7-yl)ethyl]amino}ethyl)-N^3-(2-phenylethyl)-β-alaninamide dihydrobromide salt] the same measures were 2000 nM and 158 nM.
Regarding `O=C(NCc1ccccc1)c1ccc(CCNCCC(=O)N(CCNCCc2ccc(O)c3[nH]c(=O)sc23)C2CCCCCC2)cc1` [Example 100, N-Benzyl-4-[2-({3-[cycloheptyl(2-{[2-(4-hydroxy-2-oxo-2,3-dihydro-1,3-benzothiazol-7-yl)ethyl]amino}ethyl)amino]-3-oxopropyl}amino)ethyl]benzamide bis-trifluoroacetic acid salt], the IC50 in assay [1] is 1260 nM; in assay [2], 31.6 nM.
Take `CCCC[C@@H](C)N(CCNCCc1ccc(O)c2[nH]c(=O)sc12)C(=O)CCNCCc1ccccc1` [Example 101, N-(2-{[2-(4-Hydroxy-2-oxo-2,3-dihydro-1,3-benzothiazol-7-yl)ethyl]amino}ethyl)-N-[(1R)-1-methylpentyl]-N^3-(2-phenylethyl)-β-alaninamide bis-trifluoroacetic acid salt]: the IC50 is 3980 nM in assay [1] and 31.6 nM in assay [2].
As to `CCCC[C@H](C)N(CCNCCc1ccc(O)c2[nH]c(=O)sc12)C(=O)CCNCCc1ccccc1` [Example 102, N-(2-{[2-(4-Hydroxy-2-oxo-2,3-dihydro-1,3-benzothiazol-7-yl)ethyl]amino}ethyl)-N-[(1S)-1-methylpentyl]-N^3-(2-phenylethyl)-β-alaninamide bis-trifluoroacetic acid salt], the IC50 in assay [1] was 1260 nM; in assay [2], 79.4 nM.
Turning to `CC(CN(C(=O)CCNCCc1cccc(F)c1)C1CCCCCC1)NCCc1ccc(O)c2[nH]c(=O)sc12` (stereo not drawn) [Example 104, N-Cycloheptyl-N^3-[2-(3-fluorophenyl)ethyl]-N-(2-{[2-(4-hydroxy-2-oxo-2,3-dihydro-1,3-benzothiazol-7-yl)ethyl]amino}propyl)-β-alaninamide bis-trifluoroacetic acid salt], the values for the IC50 in assay [1] and in assay [2] were 794 nM and 63.1 nM, respectively.
Take `CC(CN(C(=O)CCNCCc1ccccc1)C1CCCCC1)NCCc1ccc(O)c2[nH]c(=O)sc12` (stereo not drawn) [Example 105, N-Cyclohexyl-N-(2-{[2-(4-hydroxy-2-oxo-2,3-dihydro-1,3-benzothiazol-7-yl)ethyl]amino}propyl)-N^3-(2-phenylethyl)-β-alaninamide bis-trifluoroacetic acid salt]: the IC50 in assay [1] was 1580 nM; in assay [2], 316 nM.

The values are drawn from patent US20100022491A1, “4-HYDROXY-2-OXO-2,3-DIHYDRO-1,3-BENZOTHIAZOL-7YL COMPOUNDS FOR MODULATION OF B2-ADRENORECEPTOR ACTIVITY” (ASTRAZENECA AB, priority 2006, published 2010).
